Data reported in paper PMC11939259, “Antiparasitic and Antifungal Activities of Cetyl-Maritima, a New N-Cetyl-Modified Maritima Derivative” (Antibiotics, 2025).
Several values for one entry are separate records, joined by “and”; a condition that tells them apart may be missing. Identical values can stand only once. Like-named read-outs stand apart in the source and are kept apart here.

Legend:
eumycetoma = test system: eumycetoma; set-up: method as in PMID 38690871, PMID 38935904, PMID 39098321; settings: eumycetoma patients, conditions of a clinical trial, combined with surgery; cited from earlier work
[1] = test system: M. mycetomatis fungal strain MM55; assay: M. mycetomatis MM55 in vitro susceptibility, MTS metabolic activity; format: cell-based, Madurella mycetomatis; settings: for Metabolic activity upon treatment at 25 μM / Metabolic activity upon treatment at 100 μM: ± SD
Experimental: The M. mycetomatis MM55 isolate obtained from a patient and identified and maintained in the Erasmus Medical Centre, Rotterdam, The Netherlands, was applied for the investigation of the in vitro susceptibility of the test compounds as reported previously [94]. In short, the fungal isolate was cultured on Sabouraud agar for 2 weeks at 37 °C, after which the mycelium was transferred in colorless RPMI 1640 medium supplemented with L-glutamine (0.3 g/L; Capricorn-Scientific, Ebsdorfergrund, Germany), morpholinepropanesulfonic acid (MOPS, 20 mM, Sigma, St. Louis, MO, USA), and chloramphenicol (100 mg/L, Oxoid, Basingstroke, UK). The mycelium was sonicated for 10 s at 10 μm with a probe sonicator (Soniprep, Beun de Ronde, Abcoude, The Netherlands) to obtain a hyphal suspension, after which the hyphal suspension was cultured for another week at 37 °C. The suspension was then collected by centrifugation (5 min, 3400 rpm) and washed with PBS followed by the addition of fresh RPMI 1640 medium, after which the mycelia was again sonicated for 10 s at 10 μm with a probe sonicator. The hyphal suspension was diluted to a transmission of 70% at 660 nm (Novaspec II; Pharmacia Biotech, Uppsala, Sweden). Then, 100 μL of the suspension was added to each well of a 96-wells plate (Costar 3799, Fisher Scientific, Breda, The Netherlands) that contained 1 μL of each compound sample. Compounds were initially evaluated at concentrations of 100 μM and 25 μM.
For the final metabolic activity evaluation, a viability dye named MTS, 3-(4,5-dimethylthiazol-2-yl)-5-(3-carboxymethoxyphenyl)-2-(4-sulfophenyl)-2H-tetrazolium salt, was applied as described in a previous study [64]. The following formula was used: Percentage metabolic activity=Absorbance test490nm−Absorbance NC490nm/Absorbance GC490nm−Absorbance NC490nm∗100
The growth control (GC) refers to the fungal isolate only and indicates 100% metabolic activity.

[2] = test system: M. mycetomatis fungal strain MM55; set-up: method as in PMID 37067830; settings: positive control, cited from earlier work
[3] = test system: L. major intramacrophageal amastigotes; assay: L. major intramacrophageal amastigote assay (Giemsa, infected macrophages); format: cell-based, Leishmania major; settings: for IC50: Leishmania major, Macrophage, 72 h, read-out: IC50 Amastigotes
Experimental: Promastigotes of L. major were isolated from a patient in February 2016 and cultured at 26 °C in Schneider’s Drosophila medium (Invitrogen, Carlsbad, CA, USA) supplemented with 10% heat-inactivated fetal bovine serum (FBS, Invitrogen, USA) and antibiotics. Cultures were maintained in tissue culture flasks with weekly transfers. The promastigotes were cryopreserved in liquid N2 at a concentration of 3 × 10^6 parasites/mL. Virulent L. major parasites were maintained by serial passage in BALB/c mice through hind footpad injections of 1 × 10^6 stationary-phase promastigotes, and amastigotes were isolated after 7 weeks. Isolated amastigotes were converted to promastigotes by culturing at 26 °C in Schneider’s medium with antibiotics and 10% FBS. Amastigote-derived promastigotes, with fewer than five in vitro passages, were used for infection experiments.
(§1) For amastigote activity assays, peritoneal macrophages were collected from BALB/c mice (7 weeks old) by aspiration. Cells (5 × 10^4 cells/well) were seeded into 96-well plates (see also Figure S7) with phenol red-free RPMI 1640 medium containing 10% FBS and incubated at 37 °C with 5% CO2 for 4 h to allow adhesion. After discarding the medium and washing with PBS, 200 μL of L. major promastigotes in RPMI 1640 medium (10 promastigotes per macrophage) were added. Plates were incubated at 37 °C with 5% CO2 for 24 h to promote macrophage infection and amastigote differentiation. Unattached promastigotes were removed by washing with PBS (three times), and fresh phenol red-free RPMI 1640 medium containing test compounds (90, 30, 10, 3.3, 1.1, 0.37, and 0.12 μg/mL) was added. Cultures were incubated at 37 °C in 5% CO2 for 72 h. […] After incubation, cells were fixed and Giemsa-stained, and the percentage of infected macrophages was determined microscopically. IC50 values were calculated from three independent experiments. The isolation of parasites and macrophages was performed strictly following the rules and guidelines of the responsible committee of research ethics, Deanship of Scientific Research, Qassim University, Kingdom of Saudi Arabia (permission number 20-03-20).

[4] = test system: T. gondii RH strain tachyzoites; assay: T. gondii growth inhibition in infected Vero cells (infection index); format: cell-based, Toxoplasma gondii
Experimental: Cells of the Vero cell line (ATCC® CCL81™, Manassas, VA, USA) were used to cultivate T. gondii RH strain tachyzoites. The effects of test compounds on T. gondii growth were investigated according to previously published methods. Vero cells were maintained in complete RPMI 1640 medium supplemented with 10% heat-inactivated FBS, under a humidified atmosphere containing 5% CO2 at 37 °C. The cells were seeded in 96-well plates at a density of 5 × 10^3 cells/well (see also Figure S7) in 200 μL of RPMI 1640 medium and incubated at 37 °C with 5% CO2 for 24 h. Following incubation, the medium was discarded, and cells were washed with PBS. Subsequently, RPMI 1640 medium containing 2% FBS and T. gondii tachyzoites was added at a ratio of 5 parasite cells to 1 Vero cell. After 5 h incubation at 37 °C and 5% CO2, cells were washed with PBS and processed as outlined below.
Control: RPMI 1640 medium with 0.8% DMSO.
Experimental: RPMI 1640 medium containing test compounds (dissolved in DMSO) at concentrations of 90, 30, 10, 3.3, 1.1, 0.37, and 0.12 μg/mL. Atovaquone (ATO) was used as positive control.
Cells were incubated at 37 °C and 5% CO2 for 72 h, washed with PBS, fixed in 10% formalin, and stained with 1% toluidine blue. The infection index, defined as the number of infected cells out of 200 examined cells, was determined using an inverted photomicroscope.
The percentage of inhibition was calculated using the following equation:Inhibition (%) = [(I Control − I Experimental)/I Control] × 100 where “I Control” is the infection index of untreated cells, and “I Experimental” is the infection index of cells treated with test compounds.

L. major promastigotes = assay: L. major promastigote viability (MTT); format: cell-based; settings: Leishmania major, 72 h, read-out: IC50 Promastigotes
peritoneal macrophages = assay: Macrophage cytotoxicity (MTT); format: cell-based, BALB/c mice; settings: Mus musculus, 72 h, read-out: IC50 Macrophages
Experimental: as §1, with “The isolation of parasites and macrophages was performed strictly following the rules and guidelines of the responsible committee of research ethics, Deanship of Scientific Research, Qassim University, Kingdom of Saudi Arabia (permission number 20-03-20).” left out
MTT assays were performed to assess the cytotoxicity of the test compounds. […] The absorbance was measured at 540 nm using a FLUOstar OPTIMA spectrophotometer (BMG LABTECH, Ortenberg, Germany). […] IC50 values were determined from three independent experiments.

Vero monkey kidney cells = assay: Vero cell cytotoxicity (MTT); format: cell-based; settings: Primates, 72 h, ± S.D
Experimental: MTT assays were performed to assess the cytotoxicity of the test compounds. Vero cells and isolated macrophages were seeded in 96-well plates at a density of 5 × 10^3 cells per well in 200 μL of RPMI 1640 medium with 10% FBS and incubated at 37 °C with 5% CO2 for 24 h. After incubation, cells were washed with PBS and treated with test compounds at varying concentrations (90, 30, 10, 3.3, 1.1, 0.37, and 0.12 μg/mL) in 10% FBS medium for 72 h. Negative control wells contained cells treated with medium in 2% FBS without test compounds (see also raw data in Table S5). After treatment, the supernatant was removed, and 50 μL of RPMI 1640 medium containing 14 μL of MTT solution (5 mg/mL) was added. The cells were incubated for an additional 4 h. Following incubation, the supernatant was discarded, and 200 μL of DMSO was added to dissolve the formazan crystals. The absorbance was measured at 540 nm using a FLUOstar OPTIMA spectrophotometer (BMG LABTECH, Ortenberg, Germany). […] IC50 values were determined from three independent experiments.

[5] = Madurella mycetomatis, read-out: IC50

In the case of `C[C@@H](c1nc(-c2ccc(C#N)cc2)cs1)[C@@](Cn1cncn1)(OCOP(=O)(O)O)c1ccc(F)cc1F` [fosravuconazole], the cure rate (eumycetoma) is given as greater than 70%.

In the case of `CCCCCCCCCCCCCCCC[n+]1ccc(C)cc1` [C4PicBr], the “Metabolic activity upon treatment at 25 μM” value [1] is reported as 18.4 ± 17.7%, the “Metabolic activity upon treatment at 100 μM” value [1] is reported as 5.0 ± 0.8% and the IC50 [1, 5] is reported as 16.1 µM.

In the case of `CCCCCCCCCCCCCCCC[n+]1ccc(/C=C/c2ccc(N(C)C)cc2)cc1` [DAMS-16], the “Metabolic activity upon treatment at 25 μM” value [1] is reported as 56.9 ± 69.3%, the “Metabolic activity upon treatment at 100 μM” value [1] is reported as 25.4 ± 4.3% and the IC50 [1, 5] is reported as 16 µM.

For `CCCCCCCCCCCCCCCC[n+]1ccc(/C=C/c2cc(OC)c(OC)c(OC)c2)cc1` [TMP-16], the “Metabolic activity upon treatment at 25 μM” value [1] was 13.3 ± 1.5%, the “Metabolic activity upon treatment at 100 μM” value [1] was 19.1 ± 1.1% and the IC50 [1, 5] was 18.2 µM.

In the case of `CCC(C)n1ncn(-c2ccc(N3CCN(c4ccc(OCC5COC(Cn6cncn6)(c6ccc(Cl)cc6Cl)O5)cc4)CC3)cc2)c1=O` (stereo not drawn) [Itraconazole, itraconazole], the cure rate (eumycetoma) is given as greater than 70%, the “Metabolic activity upon treatment at 25 μM” value ([2]; 25 μM, ± SD) is given as −1.04 ± 2.37% and the “Metabolic activity upon treatment at 100 μM” value ([2]; 100 μM, ± SD) is given as 2.34 ± 4.49%. The IC50 [2] was 0.09 µM.

In the case of “Dichlorido(η^6-p-cymene)[4-(4,8-dimethyl-3,7-nonadienyl)-pyridine]ruthenium(II) [Ru-Maritima]”, the “Metabolic activity upon treatment at 25 μM” value [1] is reported as 155% and 155.7 ± 22.2% and the “Metabolic activity upon treatment at 100 μM” value [1] is reported as −6.6 ± 12.2%.

For `CCCCCCCCCCCCCCCC[n+]1ccccc1C` [C2PicBr], the “Metabolic activity upon treatment at 25 μM” value [1] was 8.7 ± 0.8%, the “Metabolic activity upon treatment at 100 μM” value [1] was 4.5 ± 0.8% and the IC50 [1, 5] was 16.1 µM.

For `CCCCCCCCCCCCCCCC[n+]1ccc(CCC=C(C)CCC=C(C)C)cc1.[Br-]` [Cetyl-Maritima, 1-Hexadecyl-4-(4,8-dimethyl-3,7-nonadienyl)-pyridinium Bromide], the “SI selectivity index (macrophages/L. major amastigotes)” value [3] was 7.2, the “SI selectivity index, Vero kidney cells vs L. major amastigotes” value [3] was 19 and the IC50 [3] was 0.6 ± 0.2 µM. The IC50 [1] was 8.2 µM, the “Metabolic activity upon treatment at 25 μM” value [1] was 12.2 ± 6.9% and the “Metabolic activity upon treatment at 100 μM” value [1] was 13.1 ± 2.0%. For the same compound, the IC50 ([1]; Madurella mycetomatis) was roughly 8 µM, the “SI selectivity index (Vero/T. gondii)” value [4] was 1.3 and the IC50 ([4]; 72 h; ± S.D) was 8.6 ± 1.2 µM. For the same compound, the IC50 ([4]; Toxoplasma gondii, Vero, 72 h; ± S.D) was roughly 8 µM, the IC50 (L. major promastigotes) was 1.5 ± 0.2 µM and the IC50 (peritoneal macrophages) was 4.3 ± 0.5 µM. The IC50 (Vero monkey kidney cells) was 11.4 ± 1.3 µM.

For `CC(C)=CCCC(C)=CCCc1ccncc1` [Maritima, 4-(4,8-dimethyl-3,7-nonadienyl)-pyridine], the IC50 ([3]; intramacrophageal, ± S.D) was greater than 314 µM, the “Metabolic activity upon treatment at 25 μM” value [1] was 54% and 54.3 ± 7.5% and the “Metabolic activity upon treatment at 100 μM” value [1] was 13.8 ± 33.8%. It also gave an IC50 ([4]; Toxoplasma gondii, Vero; 72 h; ± S.D) greater than 314 µM, an IC50 (L. major promastigotes; ± S.D) greater than 314 µM and an IC50 (peritoneal macrophages; ± S.D) greater than 314 µM. For the same compound, the IC50 (Vero monkey kidney cells) was greater than 314 µM.
